Data from patent publication US20040019070A1, “Pyrrole-condensed morphinoid derivatives” (priority 2000, published 2004).

Columns and labels:
[1] = target: T1, human delta opioid receptor (Homo sapiens, UniProt P41143); test: radioligand binding assay, [3H]-DADLE, cloned human delta opioid receptor in CHO cells
T1 construct: expressed in transfected cells; membranes prepared
Experimental: The activity of the compounds of the present invention as selective delta ligands is determined in radioligand binding assays as described below.
(§1) The activity of the compounds of the present invention as selective delta ligands is determined in radioligand binding assays using cloned human delta, mu and kappa opioid receptors stably expressed in cell lines as described below.
(§2) CHO cells were subjected to stable transfection with cDNA encoding the human delta and mu opioid receptors. Clones were grown in suspension culture in serum free media. Selection was performed by growth in the absence of nucleotides.
(§3) Membranes were prepared as previously described (J. Med. Chem. 1997, 40, 3192 ). The binding of the preferential delta ligand [^3H]-[D-Ala^2,D-Leu^5]-enkephalin (DADLE) was evaluated at its KD concentration (0.7 nM). The binding of the mu ligand [^3H]-DAMGO (Eur. J. Pharmacol., 1989, 166, 213) and of the kappa ligand [^3H]-U69593 (Excerpta Medica, 1990, 211) were carried out at 0.5 nM. Non specific binding was determined in the presence of 10 uM of naloxone. Binding data were expressed as percentage of inhibition and fitted the following equation: f(x)=100·X/(IC50+X) where X is the cold drug concentration value. The IC50 values obtained were used to calculate the inhibitory constants (Ki) accordingly to the Cheng and Prusoff relation (Biochem. Pharmacol., 1973, 22, 3099).

human mu opioid receptor = target: T2, human mu opioid receptor (Homo sapiens, UniProt P35372); test: radioligand binding assay, [3H]-DAMGO, cloned human mu opioid receptor in CHO cells; conditions: ratio of Ki at mu ([3H]-DAMGO 0.5 nM) to Ki at delta
T2 construct: expressed in transfected cells; membranes prepared
Experimental: as §1, §2, §3

T1 sequence (P41143 whole entry): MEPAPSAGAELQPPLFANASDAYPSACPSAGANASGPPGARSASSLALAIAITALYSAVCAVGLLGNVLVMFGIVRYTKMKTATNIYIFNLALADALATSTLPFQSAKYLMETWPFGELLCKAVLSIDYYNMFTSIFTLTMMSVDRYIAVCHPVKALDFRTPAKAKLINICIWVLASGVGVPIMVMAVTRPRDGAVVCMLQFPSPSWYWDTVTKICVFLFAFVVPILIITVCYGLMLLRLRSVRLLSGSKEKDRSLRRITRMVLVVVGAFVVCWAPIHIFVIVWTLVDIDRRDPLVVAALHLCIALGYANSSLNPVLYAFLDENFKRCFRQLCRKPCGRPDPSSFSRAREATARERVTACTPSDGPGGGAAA
T2 sequence (P35372 whole entry): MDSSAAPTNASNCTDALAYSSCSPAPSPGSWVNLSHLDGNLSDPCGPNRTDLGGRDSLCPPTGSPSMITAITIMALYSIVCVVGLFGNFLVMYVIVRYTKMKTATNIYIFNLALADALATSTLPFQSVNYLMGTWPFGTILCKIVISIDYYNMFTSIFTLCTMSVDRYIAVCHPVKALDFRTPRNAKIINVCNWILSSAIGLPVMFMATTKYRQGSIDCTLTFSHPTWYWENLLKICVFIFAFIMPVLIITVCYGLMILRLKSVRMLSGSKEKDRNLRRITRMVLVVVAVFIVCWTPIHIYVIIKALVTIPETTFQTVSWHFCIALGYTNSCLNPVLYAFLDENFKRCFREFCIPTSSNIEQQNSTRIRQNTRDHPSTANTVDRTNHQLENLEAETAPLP

| SMILES | Ki [1] [nM] | Ki mu/Ki delta (human mu opioid receptor) |
| --- | --- | --- |
| COc1ccc2c3c1O[C@H]1c4[nH]c(C(=O)N5C(C)(C)CCCC5(C)C)c(C)c4C[C@H]4[C@@H](C2)N(C)CC[C@]314 [Example 1] | 0.3 | 267 |
| COc1ccc2c3c1O[C@H]1c4[nH]c(C(=O)N5CCC(C(=O)c6ccccc6)CC5)c(C)c4C[C@H]4[C@@H](C2)N(C)CC[C@]314 [Example 6] | 1.4 | 220 |
